Laboratory results taken from patent publication US9131690B2, “Macrocyclic picolinamides as fungicides” (Dow AgroSciences LLC, priority 2012, dated 2015).
Read-outs that look alike come from different tables or passages of the source.

Experiments:
[1] = test system: Mycosphaerella graminicola; Anamorph: Septoria tritici; test: Fungicidal activity: Leaf Blotch of Wheat (SEPTTR), wheat plants variety Yuma; format: in vivo; design: key to SEPTTR 3DC Disease Control: A: 50-100; B: More than 0-Less than 50; C: Not Tested; D: No activity noticed in this bioassay; details: for pest or weed control at 100 ppm: Zymoseptoria tritici
Experimental: Evaluation of Fungicidal Activity: Leaf Blotch of Wheat (Mycosphaerella graminicola; Anamorph: Septoria tritici; Bayer Code […]) Wheat plants (variety Yuma) were grown from seed in a greenhouse in 50% mineral soil/50% soil-less Metro mix until the first leaf was fully emerged, with 7-10 seedlings per pot. These plants were inoculated with an aqueous spore suspension of Septoria tritici either prior to or after fungicide treatments. After inoculation the plants were kept in 100% relative humidity (one day in a dark dew chamber followed by two to three days in a lighted dew chamber) to permit spores to germinate and infect the leaf. The plants were then transferred to a greenhouse at 20° C. for disease to develop.

[2] = test system: Puccinia triticina. Synonym: Puccinia recondite f. sp. tritici; test: Fungicidal activity: Wheat Brown Rust (PUCCRT), wheat plants variety Yuma; format: in vivo; design: key to PUCCRT 3DC Disease Control: A: 50-100; B: More than 0-Less than 50; C: Not Tested; D: No activity noticed in this bioassay; details: for pest or weed control at 100 ppm: Puccinia triticina; for PUCCRT 3DC Disease Control: 100 ppm
Experimental: Evaluation of Fungicidal Activity: Wheat Brown Rust (Puccinia triticina. Synonym: Puccinia recondite f. sp. tritici; Bayer Code PUCCRT) Wheat plants (variety Yuma) were grown from seed in a greenhouse in 50% mineral soil/50% soil-less Metro mix until the first leaf was fully emerged, with 7-10 seedlings per pot. These plants were inoculated with an aqueous spore suspension of Puccinia recondite f. sp. tritici either prior to or after fungicide treatments. After inoculation the plants were kept in 100% relative humidity overnight to permit spores to germinate and infect the leaf. The plants were then transferred to a greenhouse set at 24 C for disease to develop.

[3] = 24 h, 1 Day Protectant, read-out: SEPTTR 1DP Disease Control
[4] = 72 h, 3 Day Curative, read-out: SEPTTR 3DC Disease Control
[5] = 24 h, 1 Day Protectant, read-out: PUCCRT 1DP Disease Control
[6] = 72 h, 3 Day Curative, read-out: PUCCRT 3DC Disease Control

Row | melting point [°C] | Structure (SMILES) | pest or weed control at 100 ppm [1, 3] [%] | pest or weed control at 100 ppm [1, 4] [%] | pest or weed control at 100 ppm [2, 5] [%] | pest or weed control at 100 ppm [2, 6] [%] | PUCCRT 3DC Disease Control ([2]; 3 Day Curative) | SEPTTR 3DC Disease Control ([1]; 100 ppm, 3 Day Curative)
1 | – | COc1ccnc(C(=O)N[C@H]2COC(=O)[C@H](CCOC(=O)C(C)(C)C)[C@@H](OC(=O)C(C)C)[C@H](C)OC2=O)c1O [Compound 37] | 50 to 100 | 0 to 50 | 50 to 100 | 0 to 50 | – | –
2 | 148 to 152 | COc1ccnc(C(=O)N[C@H]2COC(=O)[C@H](Cc3ccc(Cl)nc3)[C@@H](OC(=O)C(C)C)[C@H](C)OC2=O)c1O [Compound 7] | 0 to 50 | 0 to 50 | 50 to 100 | 50 to 100 | – | –
3 | – | COc1ccnc(C(=O)N[C@H]2COC(=O)[C@H](CCC3CCCCC3)[C@@H](OC(=O)C(C)C)[C@H](C)OC2=O)c1O [Compound 62] | 50 to 100 | 0 to 50 | 50 to 100 | 0 to 50 | – | –
4 | – | COc1ccnc(C(=O)N[C@H]2COC(=O)[C@H](CC(=O)OC(C)(C)C)[C@@H](OC(=O)C(C)C)[C@H](C)OC2=O)c1OCOC(=O)C(C)C [Compound 30] | 50 to 100 | 50 to 100 | 50 to 100 | 50 to 100 | – | –
5 | 117 to 119 | COc1ccnc(C(=O)N[C@H]2COC(=O)[C@H](CC3CCCCC3)[C@@H](OC(=O)C(C)C)[C@H](C)OC2=O)c1OCOC(=O)C(C)C [Compound 27] | 0 to 50 | 0 to 50 | 0 to 50 | 0 to 50 | – | –
6 | – | COc1ccnc(C(=O)N[C@H]2COC(=O)[C@H](CCc3cccnc3)[C@@H](OC(=O)C(C)C)[C@H](C)OC2=O)c1OCOC(=O)C(C)C [Compound 31] | 0 to 50 | 0 to 50 | 50 to 100 | 0 to 50 | – | –
7 | 151 to 156 | COc1ccnc(C(=O)N[C@H]2COC(=O)[C@H](Cc3ccncc3)[C@@H](OC(=O)C(C)C)[C@H](C)OC2=O)c1O [Compound 5] | 50 to 100 | 50 to 100 | 50 to 100 | 50 to 100 | – | –
8 | – | COc1ccnc(C(=O)N[C@H]2COC(=O)[C@H](CCOC(=O)c3cc(OC)c(OC)c(OC)c3)[C@@H](OC(=O)C(C)C)[C@H](C)OC2=O)c1O [Compound 41] | 0 to 50 | 0 to 50 | 50 to 100 | – | D | –
9 | 172 to 174 | COc1ccnc(C(=O)N[C@H]2COC(=O)[C@H](CCOC(=O)c3ccccc3)[C@@H](OC(=O)C(C)C)[C@H](C)OC2=O)c1O [Compound 35, 2-((3S,7R,8R,9S)-3-(3-hydroxy-4-methoxypicolinamido)-8-(isobutyryloxy)-9-methyl-2,6-dioxo-1,5-dioxonan-7-yl)ethyl benzoate] | 50 to 100 | – | 50 to 100 | – | D | D
10 | 192 to 197 | COc1ccnc(C(=O)N[C@H]2COC(=O)[C@H](Cc3cccc4ccccc34)[C@@H](OC(=O)C(C)C)[C@H](C)OC2=O)c1O [Compound 15] | 50 to 100 | 0 to 50 | 50 to 100 | 0 to 50 | – | –
11 | 139 to 140 | COc1ccnc(C(=O)N[C@H]2COC(=O)[C@H](CCOCc3ccccc3)[C@@H](OC(=O)C(C)C)[C@H](C)OC2=O)c1O [Compound 60, (3S,6S,7R,8R)-8-(2-(benzyloxy)ethyl)-3-(3-hydroxy-4-methoxypicolinamido)-6-methyl-4,9-dioxo-1,5-dioxonan-7-yl isobutyrate] | 50 to 100 | 0 to 50 | 50 to 100 | 50 to 100 | – | –
12 | 192 to 194 | COc1ccnc(C(=O)N[C@H]2COC(=O)[C@H](Cc3ccc(Cl)cc3)[C@@H](OC(=O)C(C)C)[C@H](C)OC2=O)c1O [Compound 9] | 50 to 100 | 0 to 50 | 50 to 100 | 50 to 100 | – | –
13 | – | COCC[C@H]1C(=O)OC[C@H](NC(=O)c2nccc(OC)c2O)C(=O)O[C@@H](C)[C@@H]1OC(=O)C(C)C [Compound 44, (3S,6S,7R,8R)-3-(3-hydroxy-4-methoxypicolinamido)-8-(2-methoxyethyl)-6-methyl-4,9-dioxo-1,5-dioxonan-7-yl isobutyrate] | 50 to 100 | 50 to 100 | 50 to 100 | 50 to 100 | – | –
14 | – | COc1ccnc(C(=O)N[C@H]2COC(=O)[C@H](CCOC(=O)C(C)C)[C@@H](OC(=O)C(C)C)[C@H](C)OC2=O)c1O [Compound 36] | 50 to 100 | 0 to 50 | 50 to 100 | – | D | –
15 | – | CCCCCCC[C@H]1C(=O)OC[C@H](NC(=O)c2nccc(OC)c2OCOC(=O)C(C)C)C(=O)O[C@@H](C)[C@@H]1OC(=O)C(C)C [Compound 33] | 50 to 100 | 50 to 100 | 50 to 100 | 50 to 100 | – | –
16 | – | COc1ccnc(C(=O)N[C@H]2COC(=O)[C@H](CCOCc3ccccc3)[C@@H](OC(=O)C(C)C)[C@H](C)OC2=O)c1OCOC(=O)C(C)C [Compound 29] | 50 to 100 | 0 to 50 | 50 to 100 | 50 to 100 | – | –
17 | – | COCC[C@H]1C(=O)OC[C@H](NC(=O)c2nccc(OC)c2OCOC(=O)C(C)C)C(=O)O[C@@H](C)[C@@H]1OC(=O)C(C)C [Compound 28] | 50 to 100 | 50 to 100 | 50 to 100 | 50 to 100 | – | –
18 | – | COc1ccnc(C(=O)N[C@H]2COC(=O)[C@H](Cc3ccc(F)cc3F)[C@@H](OC(=O)C(C)C)[C@H](C)OC2=O)c1OCOC(=O)C(C)C [Compound 21] | 50 to 100 | 50 to 100 | 50 to 100 | 50 to 100 | – | –
19 | – | COc1ccc(C[C@H]2C(=O)OC[C@H](NC(=O)c3nccc(OC)c3O)C(=O)O[C@@H](C)[C@@H]2OC(=O)C(C)C)cc1 [Compound 8] | 50 to 100 | 0 to 50 | 50 to 100 | 50 to 100 | – | –
20 | – | CCC[C@H]1C(=O)OC[C@H](NC(=O)c2nccc(OC)c2OCOC(=O)C(C)C)C(=O)O[C@@H](C)[C@@H]1OC(=O)C(C)C [Compound 34] | 50 to 100 | 50 to 100 | 50 to 100 | 50 to 100 | – | –
21 | – | COc1ccnc(C(=O)N[C@H]2COC(=O)[C@H](Cc3ccc(F)cc3)[C@@H](OC(=O)C(C)C)[C@H](C)OC2=O)c1OCOC(=O)C(C)C [Compound 20] | 50 to 100 | 50 to 100 | 50 to 100 | 50 to 100 | – | –
22 | – | COc1ccnc(C(=O)N[C@H]2COC(=O)[C@H](CCc3ccccc3)[C@@H](OC(=O)C(C)C)[C@H](C)OC2=O)c1OCOC(=O)C(C)C [Compound 32] | 50 to 100 | 50 to 100 | 50 to 100 | 50 to 100 | – | –
